{
  "source": "patent US20050186137A1",
  "about": "“Novelty-induced hypophagia-based assays for identifying agents to treat anxiety and depression” (priority 2003, published 2005)",
  "key": {"BALB/cJ mice [1]": {"system": "BALB/cJ mice", "assay": "Prepulse inhibition of startle", "type": "in vivo, mouse", "experimental": "(§1) For chronic fluoxetine studies in BALB/cJ mice, 60 male BALB/cJ mice were tested in the OF for 30 min on days 19 or 20 of chronic fluoxetine treatment. Mice were then pretested and tested in the modified FST on days 21 and 22, respectively. Animals were then allowed to adapt to being singly housed, and were trained for NIH on days 25-27. Home cage and novel cage testing occurred on days 28 and 29, respectively. Mice were then assessed for PPI on days 34 or 35.\n(§2) Studies of subchronic fluoxetine were conducted using separate groups of 60 male BALB/cJ mice to prevent fluoxetine treatment from exceeding one week. One group was tested in the OF after one day of subchronic fluoxetine treatment. Mice were then pretested after 6 and tested after 7 days of subchronic fluoxetine treatment in the modified FST. A second group of BALB/cJ mice began fluoxetine treatment after being singly housed. They were then tested in the NIH test after 4 (home) and 5 (novel) days of subchronic fluoxetine treatment. A third group was tested for PPI after one or two days of subchronic fluoxetine treatment.\nPrepulse Inhibition: Startle experiments were performed in MED-Associates chambers. Nonrestrictive Plexiglas cylinders 5 cm in diameter rested on a Plexiglas platform with a transducer amplifier. The sound-dampening isolation chambers were ventilated, well-lit, and equipped with an acoustic stimulator. Data acquisition was performed using Med-Associates software.\nFive different trial types were presented in the test session: a 40-msec broadband 120 dB burst (PULSE ALONE trial); three different PREPULSE+PULSE trials in which 20-msec long 3 dB (pp3), 6 dB (pp6), or 12 dB (pp12) stimuli above a 70 dB background preceded the 120 dB pulse by 100 msec (onset to onset), and a NO STIMULUS trial, in which only the background noise was presented. Trials were presented in a pseudo-random order. A variable interval of 10-20 seconds separated trials.\nThe test session consisted of 62 test trials. The session began with a 10 min acclimation period, followed by four consecutive blocks of test trials. Blocks one and four consisted of six consecutive PULSE ALONE trials, while blocks two and three contained six PULSE ALONE trials, five pp3+p120 trials, five pp6+p120 trials, five pp12+p120 trials, and four NO STIMULUS trials. Analyses were performed using average values for each trial type.\nPrepulse Inhibition: PPI was calculated as the averaged startle magnitude caused by PULSE ALONE trials from blocks two and three, minus the averaged startle magnitude caused by the prepulse-pulse trials, all divided by the averaged PULSE ALONE values from blocks two and three. The resulting value was multiplied by 100 and presented as a percent PPI value. Four-factor ANOVAs with fluoxetine and RU24969 as between subjects factors and prepulse intensity and block as within subjects variables assessed percent PPI levels. Interactions were resolved using post-hoc ANOVAs with adjusted p-values, and/or Newman-Keuls post-hoc tests."}, "BALB/cJ mice [2]": {"system": "BALB/cJ mice", "assay": "Novelty induced hypophagia test", "type": "in vivo, mouse", "experimental": "as §1, §2\nNovelty induced hypophagia test: Mice were singly housed several days before training began. For three consecutive days of training, mice were presented with diluted (1:3; milk:water) sweetened condensed milk (Carnation) in pipettes in the home cage for 30 min. Testing occurred on days 4 and 5 when mice were presented with the milk, and latency to drink and the volume consumed were recorded every five minutes for 30 min. On day 4, testing occurred in the home cage under dim lighting (approx. 50 lux). Mice were briefly removed from the cage to position pipettes, and testing began when mice were returned to their cages. On day 5, mice were placed into new cages of the same dimensions without shavings under bright lighting (approx. 1200 lux). White paper was placed under cages to enhance aversiveness on day 5.\nNovelty induced hypophagia test: For latency scores, a maximum cut-off of 600 sec was used. Two-factor ANOVAs with home/novel cage condition as a within-subjects factor and fluoxetine as a between-subjects factor were applied to latency values. Main effects of fluoxetine or significant interactions of fluoxetine and home/novel cage condition were resolved using post-hoc ANOVAs with adjusted p-values and/or Newman-Keuls post-hoc tests. For consumption data, a three-factor ANOVA with block (5 min intervals) and home/novel cage condition as within-subjects factors and fluoxetine as a between-subjects factor was used to assess whether the novel cage was sufficiently anxiogenic to reduce consumption. Two-factor ANOVAs with block as a within-subjects factor and fluoxetine as a between-subjects factor were applied separately to consumption values for the home and the novel cage. Main effects of fluoxetine or significant interactions were resolved using post-hoc ANOVAs with adjusted p-values and/or Newman-Keuls post-hoc tests."}, "[3]": {"system": "BALB/cJ, DBA/2J, C57BL/6J, and 129SvEv mice", "assay": "Modified forced swim test, strain comparison", "type": "in vivo, mouse", "experimental": "For the strain comparison study, 36 male mice of four strains (BALB/cJ, DBA/2J, C57BL/6J, 129SvEv) were subjects for a total of 144 mice. Mice were tested in the OF beginning on day 30 or 33 of chronic fluoxetine treatment. Mice were tested for 15 min on three consecutive days to maximize activity levels. Mice were then tested in the modified FST on day 36 or 37.\nModified forced swim test: Mice were placed into 19 cm diameter plastic buckets which were 23 cm deep filled with 23°-25° C. water, and videotaped for six minutes. Only the last four minutes were scored for four measures: swimming, immobility, climbing, or other. The predominant behavior was recorded every 5 sec. For chronic and subchronic fluoxetine studies in BALB/cJ mice, mice were pre-exposed to the FST for 6 min 24 hours before test day to increase sensitivity for detecting antidepressant behavioral effects (Borsini et al., 1989).\nModified forced swim test: Two-factor ANOVAs with fluoxetine as a between-subjects factor and block (1 min intervals) as a within-subject factor were applied to three different measures: swimming, immobility, and climbing. Significant main effects of fluoxetine and interactions were resolved using post-hoc ANOVAs with adjusted p-values, and/or Newman-Keuls post-hoc tests."}, "[4]": {"details": "administration of fluoxetine in the drinking water; cited from earlier work"}, "[5]": {"details": "subchronic (4-5 days) fluoxetine"}, "[6]": {"details": "BALB/cJ mice, chronic 10 mg/kg/day, relative to 5 mg/kg/day and controls"}},
  "data": [
    {"smiles": "CNCCC(Oc1ccc(C(F)(F)F)cc1)c1ccccc1", "note": "(stereo not shown) [fluoxetine]", "values": [
      {"measurement": "PPI in RU24969-treated mice", "setting": "BALB/cJ mice [1]; chronic 10 mg/kg/day fluoxetine, 12 dB prepulse intensity", "result": "increased PPI relative to RU24969-treated mice receiving 0 and 18 mg/kg/day fluoxetine"},
      {"measurement": "Startle reactivity, interactions of RU24969 with fluoxetine", "setting": "BALB/cJ mice [1]; chronic fluoxetine", "result": "no interactions"},
      {"measurement": "RU24969-induced disruption of PPI", "setting": "BALB/cJ mice [1]; chronic fluoxetine 10, 18, 25 mg/kg/day, 10 mg/kg RU24969, 3, 6, 12 dB prepulse", "result": "RU24969 disrupted PPI in control mice, but not mice treated with any dose of fluoxetine"},
      {"measurement": "PPI, fluoxetine alone", "setting": "BALB/cJ mice [1]; chronic fluoxetine without RU24969", "result": "No effects"},
      {"measurement": "PPI, interactions of RU24969 with fluoxetine", "setting": "BALB/cJ mice [1]; subchronic fluoxetine (1-2 days)", "result": "No interactions"},
      {"measurement": "startle reactivity in the second and third blocks", "setting": "BALB/cJ mice [1]; subchronic fluoxetine study (1-2 days), 10 mg/kg RU24969", "result": "no effects"},
      {"measurement": "milk consumption in the home cage, first block (0-5 min)", "setting": "BALB/cJ mice [2]; chronic 25 mg/kg/day", "result": "increased milk consumption compared to control"},
      {"measurement": "milk consumption in the novel cage, first block (0-5 min)", "setting": "BALB/cJ mice [2]; chronic 18 and 25 mg/kg/day", "result": "increased milk consumption compared to the 0 and 10 mg/kg/day doses"},
      {"measurement": "latency difference scores (novel minus home)", "setting": "BALB/cJ mice [2]; chronic 18 and 25 mg/kg/day vs control", "result": "control animals exhibited significantly larger difference scores"},
      {"measurement": "latency to drink milk in the home cage", "setting": "BALB/cJ mice [2]; chronic fluoxetine", "result": "reduced the latency to drink milk in the novel, but not the home cage"},
      {"measurement": "latency to drink in the novel cage", "setting": "BALB/cJ mice [2]; chronic fluoxetine, all three doses (10, 18, 25 mg/kg/day)", "result": "reduced the latency to drink relative to control in a dose-related fashion"},
      {"measurement": "consumption in the home cage, post-hoc tests", "setting": "BALB/cJ mice [2]; subchronic (4-5 days) 25 mg/kg/day", "result": "only a trend for the 25 mg/kg/day dose to increase consumption relative to control"},
      {"measurement": "latency to drink", "setting": "BALB/cJ mice [2]; [5]", "result": "no effect on any measure of latency"},
      {"measurement": "milk consumption", "setting": "BALB/cJ mice [2]; [5]", "result": "no effect"},
      {"measurement": "immobility", "setting": "[3]; [6]", "result": "decreased immobility"},
      {"measurement": "swimming", "setting": "[3]; [6]", "result": "increased swimming"},
      {"measurement": "sensitivity to chronic treatment in the modified FST across strains", "setting": "[3]; BALB/cJ, DBA/2J, C57BL/6J, 129SvEv, chronic 5 or 10 mg/kg/day", "result": "BALB/cJ was the only strain showing sensitivity"},
      {"measurement": "climbing", "setting": "[3]; chronic fluoxetine 5 or 10 mg/kg/day", "result": "No effects"},
      {"measurement": "time by which steady state blood levels have been achieved", "setting": "[4]", "result": "≤ 5", "unit": "days"}
    ]}
  ]
}
